Assay [1] concerns the target T1, human 11β-HSD1 (Homo sapiens, UniProt P28845).
T1 construct: The obtained PCR products of about 0.9 kbp, 1.2 kbp, and 0.9 kbp were subcloned into an expression vector pcDNA3.1+/Zeo; expressed in transfected cells
As to the kind of experiment: Enzyme inhibitory activity, human 11β-HSD1 (lysate of stably expressing HEK293 cells, cortisol by competitive ELISA). Type of assay: biochemical. The conditions noted are these: human 11β-HSD1, cell lysate, 37° C. for 1 hour, read-out: h HSD1 in vitro assay (IC50 uM). Here is the method: (§1) 1. Human 11β-HSD1-, Human 11β-HSD2- and Mouse 11β-HSD1-Gene Clonings and Establishment of Stably Expressing Cells
(§2) Human 11β-HSD1-, human 11β-HSD2-, and mouse 11β-HSD1-gene clonings were conducted using as a template a reverse transcription product of human-liver RNA, human-kidney RNA (CELL APPLICATIONS), and mouse-kidney RNA respectively, by means of PCR cloning with reference to nucleotide sequences of Genbank Accession Nos. NM_005525, NM_000196, and NM_008288. The obtained PCR products of about 0.9 kbp, 1.2 kbp, and 0.9 kbp were subcloned into an expression vector pcDNA3.1+/Zeo (Invitrogen).
(§3) Human 11β-HSD1- and human 11β-HSD2-expressing vectors were transfected into human kidney-derived cell line, HEK293 cells, using a transfection reagent, jet PEI (Funakoshi). Mouse 11β-HSD1 was transfected to Chinese hamster ovary-derived cell line, CHO-K1 cells. Selection was conducted with 200-400 μg/mL of zeocine (Invitrogen) to provide stably expressing-cell clones. The stably expressing cells were suspended in buffer solution A (20 mmol/L Tris-HCl, pH 7.4, 250 mmol/L sucrose, 1 mmol/L EGTA, 1 mmol/L EDTA, 1 mmol/L MgCl2), sonicated, and then stored at −80° C.
(§4) 2. Assay of Enzyme Inhibitory Activity
(§5) An enzymatic reaction was conducted using a polystyrene 96-well plate. Each well was added with 1 μL of a test agent dissolved in DMSO and then diluted (0.003 to 3 mmol/L), and further added with 10 μL of cell lysate diluted to a concentration of 0.1 mg/mL to 0.4 mg/mL. Next, 90 μL of buffer solution A containing substrate (100 nmol/L cortisone or cortisol) and coenzyme (400 μmol/L NADPH or NAD+) was added and the mixture was incubated at 37° C. for 1 hour. The enzymatic reaction was stopped by treating at 95° C. for 3 minutes. Cortisol that was present in the reaction solution was determined by a competitive ELISA shown below.
(§6) Anti-rabbit IgG antibody (Chemi-con) diluted to 2 μg/mL with carbonate buffer solution (pH 9.6) was added in 100 μL each to a 96-well immuno plate (Nunc) and immobilized by an incubation at 4° C. overnight. 50 μL of enzymatic reaction solution was put onto the plates, and further, anti-cortisol antibody (Cosmo Bio) and HRP-labeled cortisol (Cosmo Bio), diluted with buffer solution B (25 mmol/L Tris-HCl pH 7.4, 137 mmol/L NaCl, 2.68 mmol/L KCl), were added in 50 μL respectively and incubated at 4° C. overnight. After washed three times with buffer solution B containing 0.05% Tween 20, the plates were allowed to develop color by adding 100 μL of color reagent, TMB (Moss). The color reaction was stopped by 25 μL of 1 mol/L sulfuric acid and the absorbance was determined at 450 nm with a microplate reader (Molecular Device, VersaMax).
(§7) The values of human 11β-HSD1, human 11β-HSD2, and mouse 11β-HSD1 activities were subtracted from 100, and the resultant values were regarded as the respective 11β-HSD inhibition rates of example compounds. […] The comparison of human 11β-HSD1 and human 11β-HSD2 inhibiting activities is shown in Table 1, and the comparison of human 11β-HSD1 and mouse 11β-HSD1 inhibiting activities is shown in Table 2.
(In general: ELISA stands for enzyme-linked immunosorbent assay.)

In assay [2] the target is T2, mouse 11β-HSD1 (Mus musculus, UniProt P50172).
T2 construct: The obtained PCR products of about 0.9 kbp, 1.2 kbp, and 0.9 kbp were subcloned into an expression vector pcDNA3.1+/Zeo; expressed in transfected cells
As to the kind of experiment: Enzyme inhibitory activity, mouse 11β-HSD1 (lysate of stably expressing CHO-K1 cells, cortisol by competitive ELISA). The format is biochemical. Particulars: Table 2; mouse 11β-HSD1, cell lysate, 37° C. for 1 hour; read-out: m HSD1 in vitro assay (IC50 uM). Here is the method: as §1, §2, §3, §4, §5, §6, §7

Usually IC50 stands for the concentration that gives 50% inhibition.

Where two headings read alike, the source gives them in different places.

T2 sequence (P50172 whole entry): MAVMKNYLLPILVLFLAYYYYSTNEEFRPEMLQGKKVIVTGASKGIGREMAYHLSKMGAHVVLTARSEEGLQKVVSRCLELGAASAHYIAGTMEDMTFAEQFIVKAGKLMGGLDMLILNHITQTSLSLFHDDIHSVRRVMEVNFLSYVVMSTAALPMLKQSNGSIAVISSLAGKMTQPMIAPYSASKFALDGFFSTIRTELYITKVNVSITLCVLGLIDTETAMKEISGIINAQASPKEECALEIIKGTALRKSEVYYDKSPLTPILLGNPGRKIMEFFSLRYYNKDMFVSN
T1 sequence (P28845 whole entry): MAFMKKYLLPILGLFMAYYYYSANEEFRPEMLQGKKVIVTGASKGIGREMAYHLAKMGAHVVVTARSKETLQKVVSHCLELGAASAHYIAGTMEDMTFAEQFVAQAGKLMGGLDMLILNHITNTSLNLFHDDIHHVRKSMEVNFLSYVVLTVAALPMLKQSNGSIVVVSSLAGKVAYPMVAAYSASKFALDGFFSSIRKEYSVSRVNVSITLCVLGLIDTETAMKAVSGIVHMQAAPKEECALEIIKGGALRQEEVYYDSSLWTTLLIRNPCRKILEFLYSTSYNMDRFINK

For `CC1(C)C(=O)N(C2C3CC4CC2CC(C(N)=O)(C4)C3)N1c1cccc(Cl)c1Cl` (stereo not drawn) [Example 276, cis-4-[2-(2,3-dichlorophenyl)-3,3-dimethyl-4-oxo-1,2-diazetidin-1-yl]adamantane-1-carboxamide], the values for the IC50 in assay [1] (Table 1), in assay [1] (Table 2) and in assay [2] were 0.007 µM, 0.007 µM and 0.4 µM, respectively. For `CC1(C)C(=O)N(C2C3CC4CC(C3)CC2C4)N1C(=O)c1ccccc1N` (centres unmarked) [Example 136, 1-[(2-aminophenyl)carbonyl]-4,4-dimethyl-2-(adamantan-2-yl)-1,2-diazetidin-3-one], the IC50 in assay [1] (Table 1) was 0.14 µM.

On to `CC1(C)C(=O)N([C@H]2C3CC4CC2C[C@](O)(C4)C3)N1c1ccc(N)cc1` [Example 235, trans-1-(4-aminophenyl)-2-(5-hydroxyadamantan-2-yl)-4,4-dimethyl-1,2-diazetidin-3-one], for which the IC50 in assay [1] (Table 2) came out at 0.056 µM; in assay [2] it was 0.75 µM.

As for `CC1(C)C(=O)N(C2C3CC4CC(C3)CC2C4)N1Cc1ccc([N+](=O)[O-])cc1` (centres unmarked) [Example 31, 4,4-dimethyl-1-(4-nitrobenzyl)-2-(adamantan-2-yl)-1,2-diazetidin-3-one], the IC50 was 0.96 µM in assay [1] (Table 2) and 0.3 µM in assay [2]. On to `CC1(C)C(=O)N(C2CCCCCC2)N1Cc1cccc(Cl)c1Cl` [Example 84, 2-cycloheptyl-1-(2,3-dichlorobenzyl)-4,4-dimethyl-1,2-diazetidin-3-one], for which the IC50 came to 0.13 µM in assay [1] (Table 2) and 0.61 µM in assay [2]. On the same counts, the results for `CC1(C)C(=O)N(C2C3CC4CC(C3)CC2C4)N1C(=O)c1cc(Cl)cc(Cl)c1` (centres unmarked) [Example 117, 1-[(3,5-dichlorophenyl)carbonyl]-4,4-dimethyl-2-(adamantan-2-yl)-1,2-diazetidin-3-one] are 0.98 µM and 0.39 µM. With `CC1(C)C(=O)N([C@H]2C3CC4CC2C[C@@](O)(C4)C3)N1c1ccc(F)c2ccccc12` [Example 249, cis-1-(4-fluoronaphthalen-1-yl)-2-(5-hydroxyadamantan-2-yl)-4,4-dimethyl-1,2-diazetidin-3-one], the IC50 is 0.013 µM in assay [1] (Table 1) and 0.78 µM in assay [2]. On to `Cc1ccc(CN2N(C3C4CC5CC(C4)CC3C5)C(=O)C2(C)C)cc1` (centres unmarked) [Example 14, 4,4-dimethyl-1-(4-methylbenzyl)-2-(adamantan-2-yl)-1,2-diazetidin-3-one], for which the IC50 in assay [1] (Table 2) worked out at 0.84 µM; in assay [2], 0.088 µM. With `CC1(C)C(=O)N(C2C3CC4CC(C3)CC2C4)N1Cc1cccc(Cl)c1Cl` (centres unmarked) [Example 43, 1-(2,3-dichlorobenzyl)-4,4-dimethyl-2-(adamantan-2-yl)-1,2-diazetidin-3-one], the IC50 came out at 0.072 µM in assay [1] (Table 2) and 0.074 µM in assay [2].

For `CSc1ccccc1C(=O)N1N(C2C3CC4CC(C3)CC2C4)C(=O)C1(C)C` (centres unmarked) [Example 165, 4,4-dimethyl-1-{[2-(methylthio)phenyl]carbonyl}-2-(adamantan-2-yl)-1,2-diazetidin-3-one], the IC50 in assay [1] (Table 1) was found to be 0.096 µM.

On to `COc1ccccc1N1N(C2CC3CCC2C3)C(=O)C1(C)C` (centres unmarked) [Example 223, 2-(bicyclo[2.2.1]heptan-2-yl)-1-(2-methoxyphenyl)-4,4-dimethyl-1,2-diazetidin-3-one], for which the IC50 in assay [1] (Table 1) turned out to be 0.68 µM. As for `CSc1ccccc1C(=O)N1N(C2CCCCCCC2)C(=O)C1(C)C` [Example 168, 2-cyclooctyl-4,4-dimethyl-1-{[2-(methylthio)phenyl]carbonyl}-1,2-diazetidin-3-one], the IC50 in assay [1] (Table 1) came to 0.11 µM.

`COc1ccc(N2N([C@H]3C4CC5CC3C[C@@](O)(C5)C4)C(=O)C2(C)C)cc1` [Example 240, cis-2-(5-hydroxyadamantan-2-yl)-1-(4-methoxyphenyl)-4,4-dimethyl-1,2-diazetidin-3-one]: the IC50 in assay [1] (Table 1) was 0.32 µM. With `CC1(C)C(=O)N(C2C3CC4CC(C3)CC2C4)N1C(=O)c1ccc(F)cc1C(F)(F)F` (centres unmarked) [Example 132, 1-[(4-fluoro-2-trifluoromethylphenyl)carbonyl]-4,4-dimethyl-2-(adamantan-2-yl)-1,2-diazetidin-3-one], the IC50 in assay [1] (Table 1) is 0.66 µM. As to `Cc1ccccc1N1N([C@H]2C3CC4CC2C[C@@](O)(C4)C3)C(=O)C1(C)C` [Example 242, cis-2-(5-hydroxyadamantan-2-yl)-4,4-dimethyl-1-(2-methylphenyl)-1,2-diazetidin-3-one], the IC50 in assay [1] (Table 1) was found to be 0.076 µM.

`CC1(C)C(=O)N([C@H]2C3CC4CC2C[C@@](O)(C4)C3)N1c1ccccc1O` [Example 244, cis-1-(2-hydroxyphenyl)-2-(5-hydroxyadamantan-2-yl)-4,4-dimethyl-1,2-diazetidin-3-one]: the IC50 in assay [1] (Table 1) was determined as 0.81 µM. Turning to `Cc1ccc(C)c(C(=O)N2N(C3CCCCC3)C(=O)C2(C)C)c1` [Example 149, 2-cyclohexyl-1-[(2,5-dimethylphenyl)carbonyl]-4,4-dimethyl-1,2-diazetidin-3-one], the IC50 in assay [1] (Table 1) came out at 0.9 µM. Regarding `CC1(C)C(=O)N([C@H]2C3CC4CC2C[C@](O)(C4)C3)N1c1ccccc1` [Example 226, trans-2-(5-hydroxyadamantan-2-yl)-4,4-dimethyl-1-phenyl-1,2-diazetidin-3-one], in assay [1] (Table 1), the IC50 was 0.95 µM. `CC1(C)C(=O)N(C2C3CC4CC(C3)CC2C4)N1C(=O)c1cc(Cl)ccc1Br` (centres unmarked) [Example 163, 1-[(2-bromo-5-chlorophenyl)carbonyl]-4,4-dimethyl-2-(adamantan-2-yl)-1,2-diazetidin-3-one]: the IC50 in assay [1] (Table 1) came to 0.72 µM.

For `COc1ccc(N2N([C@H]3C4CC5CC3C[C@](O)(C5)C4)C(=O)C2(C)C)cc1` [Example 230, trans-2-(5-hydroxyadamantan-2-yl)-1-(4-methoxyphenyl)-4,4-dimethyl-1,2-diazetidin-3-one], in assay [1] (Table 1), the IC50 was 0.54 µM. For the compound `CC1(C)C(=O)N([C@H]2C3CC4CC2C[C@@](Cl)(C4)C3)N1c1cccc(Cl)c1Cl` [Example 256, cis-2-(5-chloroadamantan-2-yl)-1-(2,3-dichlorophenyl)-4,4-dimethyl-1,2-diazetidin-3-one], the IC50 in assay [1] (Table 1) was found to be 0.26 µM.

In the case of `CC1(C)C(=O)N(C2C3CC4CC(C3)CC2C4)N1C(=O)c1cc(Cl)ccc1Cl` (centres unmarked) [Example 122, 1-[(2,5-dichlorophenyl)carbonyl]-4,4-dimethyl-2-(adamantan-2-yl)-1,2-diazetidin-3-one], in assay [1] (Table 1), the IC50 was 0.32 µM. Take `CCc1ccccc1C(=O)N1N(C2C3CC4CC(C3)CC2C4)C(=O)C1(C)C` (centres unmarked) [Example 126, 1-[(2-ethylphenyl)carbonyl]-4,4-dimethyl-2-(adamantan-2-yl)-1,2-diazetidin-3-one]: the half-inhibitory concentration (IC50) in assay [1] (Table 1) came out at 0.11 µM. `COCOc1ccc(N2N(C3C4CC5CC(C4)CC3C5)C(=O)C2(C)C)cc1` (centres unmarked) [Example 214, 1-[4-(methoxymethoxy)phenyl]-4,4-dimethyl-2-(adamantan-2-yl)-1,2-diazetidin-3-one]: in assay [1] (Table 1), the IC50 amounted to 0.041 µM. With `CC1(C)C(=O)N(C2CCCCCCC2)N1C(=O)c1cccc2ccccc12` [Example 154, 2-cyclooctyl-4,4-dimethyl-1-(naphthalen-1-ylcarbonyl)-1,2-diazetidin-3-one], the IC50 in assay [1] (Table 1) stood at 0.036 µM. `CC1(C)C(=O)N(C2C3CC4CC(C3)CC2C4)N1C(=O)c1ccccc1I` (centres unmarked) [Example 121, 1-[(2-iodophenyl)carbonyl]-4,4-dimethyl-2-(adamantan-2-yl)-1,2-diazetidin-3-one]: in assay [1] (Table 1), the IC50 was 0.07 µM.

Source of the values: patent US8252781B2, “1,2-diazetidin-3-one derivatives and drugs containing same” (Kowa Company, Ltd., priority 2008, dated 2012).
